From patent US10793557B2, “Sting agonist compounds” (Merck Sharp & Dohme Corp., priority 2018, dated 2020)

How the values were obtained:
full-length WT STING = target: T1, full-length WT STING (Homo sapiens, UniProt Q86WV6, H232R); assay: 3H-cGAMP filtration binding assay (WT STING); details: for EC50: competition with tritiated cGAMP, WT STING membrane; for inhibition at 2 µM: at 2,000 nM compound
T1 construct: AviTag (after gg linker) (C); HRV3C cleavage site (after gs linker) (C); HIS8 (C); made in house; host or cells: Trichoplusia ni (Hi-Five) insect cells infected with baculovirus (virus generated and amplified in Sf21 cells); used as a washed membrane preparation
T1 sequence (Q86WV6 with tags, fused parts or gaps H232R): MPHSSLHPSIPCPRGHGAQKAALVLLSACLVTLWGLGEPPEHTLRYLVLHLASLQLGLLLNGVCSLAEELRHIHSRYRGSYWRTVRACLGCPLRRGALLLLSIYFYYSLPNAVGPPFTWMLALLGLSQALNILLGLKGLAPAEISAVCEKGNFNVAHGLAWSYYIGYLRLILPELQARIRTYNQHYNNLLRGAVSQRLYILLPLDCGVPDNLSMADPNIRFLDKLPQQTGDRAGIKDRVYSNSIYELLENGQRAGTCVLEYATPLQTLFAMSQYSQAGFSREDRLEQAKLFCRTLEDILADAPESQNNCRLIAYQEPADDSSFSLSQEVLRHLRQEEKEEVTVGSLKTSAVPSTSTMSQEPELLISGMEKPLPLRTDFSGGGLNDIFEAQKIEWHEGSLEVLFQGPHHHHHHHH
Summary of the method: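 EC50 values come from 4-parameter fits of remaining filter-bound tritium versus log concentration (10-point, 1:3 dilution). Insect-cell membranes carrying full-length WT STING were incubated 60 min at RT with compound and tritiated cGAMP (16 nM working stock) before filtration.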

[1] = tested on: secretion of interferon-beta from THP1 cells; assay: IFN-β secretion in THP1 cell culture (5 h); type: cell-based; details: Homo sapiens, THP-1, 5 h, 30 uM cGAMP = 100%; for activation at 3 µM: compound at 3 uM, read-out: % Effect relative to 2′3′-cGAMP (@ 3 uM); for activation at 30 µM: compound at 30 μM, read-out: % Effect at 30 μM relative to 2′3′-cGAMP
Summary of the method: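 IFN-β in supernatant measured by AlphaLISA after a 5 h, 37 °C incubation of THP1 cells with compound (10 concentrations, 30000 down to 1.5 nM, 0.3% DMSO) in low-serum RPMI. Values scaled between DMSO and 30 uM cGAMP controls; 4-parameter curve fit yields EC50.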

full-length HAQ STING = target: T2, full-length HAQ STING (Homo sapiens, UniProt Q86WV6, G230A/H232R/R293Q/R71H); assay: 3H-cGAMP filtration binding assay (HAQ STING); details: for EC50: competition with tritiated cGAMP, HAQ STING membrane
T2 construct: AviTag (after GG linker) (C); HRV3C cleavage site (after GS linker) (C); HIS8 (C); made in house; host or cells: Trichoplusia ni (Hi-Five) insect cells infected with baculovirus (virus generated and amplified in Sf21 cells); used as a washed membrane preparation
T2 sequence (Q86WV6 with tags, fused parts or gaps R71H/G230A/H232R/R293Q): as the sequence (Q86WV6 with tags, fused parts or gaps H232R) above, with R71H, G230A, R293Q counted along it
Summary of the method: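 Hi-Five (T. ni) membranes overexpressing the STING variant (2.2 ug/ml working) preincubated with compound 60 min at RT in PBS, then [3H]cGAMP (8 nM working stock) added for 60 min at RT. Bound radioactivity captured on GF/B filters and counted by scintillation; EC50 from 4-parameter fit of control-normalized activity.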

Compound | EC50 (full-length WT STING) [nM] | EC50 (full-length HAQ STING) [nM] | inhibition at 2 µM (full-length WT STING) [%] | inhibition at 2 µM (full-length HAQ STING; at 2,000 nM compound) [%] | activation at 3 µM [1] [%] | activation at 30 µM [1] [%]
COc1cc2sc(C(=O)C[C@H](C)C(=O)O)cc2c(F)c1OCCCOc1c(OC)cc2sc(CC[C@H](C)C(=O)O)cc2c1Cl [Example 151, (S)-4-(5-(3-((2-((S)-3-carboxybutyl)-4-chloro-6-methoxybenzo[b]thiophen-5-yl)oxy)propoxy)-4-fluoro-6-methoxybenzo[b]thiophen-2-yl)-2-methyl-4-oxobutanoic acid] | 1040 | 77 |  |  | 63 | 
COc1cc2sc(CC[C@H](C)C(=O)O)cc2c(Cl)c1OCCCOc1c(OC)cc2sc(C(=O)C[C@H](C)C(=O)O)cc2c1Cl [Example 152, (S)-4-(5-(3-((2-((S)-3-carboxybutyl)-4-chloro-6-methoxybenzo[b]thiophen-5-yl)oxy)propoxy)-4-chloro-6-methoxybenzo[b]thiophen-2-yl)-2-methyl-4-oxobutanoic acid] |  |  | 3 | 35 | 7 | 
COc1cc2sc(C(=O)C[C@H](C)C(=O)O)cc2c(Cl)c1OCCOc1c(OC)cc2sc(C(=O)C[C@H](C)C(=O)O)cc2c1Cl [Example 153, (2S,2′S)-4,4′-((ethane-1,2-diylbis(oxy))bis(4-chloro-6-methoxybenzo[b]thiophene-5,2-diyl))bis(2-methyl-4-oxobutanoic acid)] | 10 | 3 |  |  | 137 | 
COc1cc2sc(CC[C@H](C)C(=O)O)cc2c(Cl)c1OCCOc1c(OC)cc2sc(C(=O)C[C@H](C)C(=O)O)cc2c1Cl [Example 154, (S)-4-(5-(2-((2-((S)-3-carboxybutyl)-4-chloro-6-methoxybenzo[b]thiophen-5-yl)oxy)ethoxy)-4-chloro-6-methoxybenzo[b]thiophen-2-yl)-2-methyl-4-oxobutanoic acid] |  | 694 | 30 |  | 76 | 
COc1cc2sc(C(=O)C[C@H](C)C(=O)O)cc2cc1OCCCOc1c(OC)cc2sc(C(=O)C[C@H](C)C(=O)O)cc2c1Cl [Example 155, (S)-4-(5-(3-((2-((S)-3-carboxybutanoyl)-4-chloro-6-methoxybenzo[b]thiophen-5-yl)oxy)propoxy)-6-methoxybenzo[b]thiophen-2-yl)-2-methyl-4-oxobutanoic acid] | 5 | 3 |  |  | 129 | 
COc1cc2sc(C(=O)C[C@H](C)C(=O)O)cc2c(F)c1OCCCOc1c(OC)cc2sc(C(=O)C[C@H](C)C(=O)O)cc2c1F [Example 156, (2S,2′S)-4,4′-((propane-1,3-diylbis(oxy))bis(4-fluoro-6-methoxybenzo[b]thiophene-5,2-diyl))bis(2-methyl-4-oxobutanoic acid)] | 1 | 1 |  |  | 118 | 
CNc1cc2sc(C(=O)C[C@H](C)C(=O)O)cc2cc1OCCCOc1c(OC)cc2sc(C(=O)C[C@H](C)C(=O)O)cc2c1F [Example 157, (S)-4-(5-(3-((2-((S)-3-carboxybutanoyl)-4-fluoro-6-methoxybenzo[b]thiophen-5-yl)oxy)propoxy)-6-(methylamino)benzo[b]thiophen-2-yl)-2-methyl-4-oxobutanoic acid] | 1 | 1 |  |  | 63 | 

More lines, main results first:

EC50 (full-length WT STING) [nM] | EC50 (full-length HAQ STING) [nM] | inhibition at 2 µM (full-length WT STING) [%] | inhibition at 2 µM (full-length HAQ STING; at 2,000 nM compound) [%] | Compound | activation at 3 µM [1] [%] | activation at 30 µM [1] [%]
32 | 2 |  |  | COc1cc2sc(CC[C@H](C)C(=O)O)cc2cc1OCCCOc1c(OC)cc2sc(C(=O)C[C@H](C)C(=O)O)cc2c1F [Example 158, (S)-4-(5-(3-((2-((S)-3-carboxybutyl)-6-methoxybenzo[b]thiophen-5-yl)oxy)propoxy)-4-fluoro-6-methoxybenzo[b]thiophen-2-yl)-2-methyl-4-oxobutanoic acid] |  | 43
3 | 3 |  |  | COc1cc2sc(C(=O)C[C@H](C)C(=O)O)cc2nc1OCCCc1c(OC)cc2sc(C(=O)C[C@H](C)C(=O)O)cc2c1F [Example 159, (S)-4-(5-(3-(2-((S)-3-carboxybutanoyl)-4-fluoro-6-methoxybenzo[b]thiophen-5-yl)propoxy)-6-methoxythieno[3,2-b]pyridin-2-yl)-2-methyl-4-oxobutanoic acid] |  | 99
6 | 1 |  |  | COc1cc2sc(C(=O)C[C@H](C)C(=O)O)cc2cc1OCC(C)COc1cc2cc(C(=O)C[C@H](C)C(=O)O)sc2cc1OC [Example 160, (2S,2′S)-4,4′-(((2-methylpropane-1,3-diyl)bis(oxy))bis(6-methoxybenzo[b]thiophene-5,2-diyl))bis(2-methyl-4-oxobutanoic acid)] |  | 18
4 | 1 |  |  | COc1cc2sc(C(=O)CCC(=O)O)cc2cc1OCCCc1c(OC)cc2sc(C(=O)C[C@H](C)C(=O)O)cc2c1F [Example 161, (S)-4-(5-(3-((2-(3-carboxypropanoyl)-6-methoxybenzo[b]thiophen-5-yl)oxy)propyl)-4-fluoro-6-methoxybenzo[b]thiophen-2-yl)-2-methyl-4-oxobutanoic acid] |  | 106
4 | 1 |  |  | COc1cc2sc(C(=O)C[C@H](C)C(=O)O)cc2cc1OCCCc1c(OC)cc2sc(C(=O)C[C@H](C)C(=O)O)cc2c1F [Example 162, (S)-4-(5-(3-(2-((S)-3-carboxybutanoyl)-4-fluoro-6-methoxybenzo[b]thiophen-5-yl)propoxy)-6-methoxybenzo[b]thiophen-2-yl)-2-methyl-4-oxobutanoic acid] |  | 98
1 | 1 |  |  | COc1cc2sc(C(=O)C[C@H](C)C(=O)O)cc2c(F)c1CCCOc1c(OC)cc2sc(C(=O)CCC(=O)O)cc2c1F [Example 163, (S)-4-(5-(3-((2-(3-carboxypropanoyl)-4-fluoro-6-methoxybenzo[b]thiophen-5-yl)oxy)propyl)-4-fluoro-6-methoxybenzo[b]thiophen-2-yl)-2-methyl-4-oxobutanoic acid] |  | 135
1 | 1 |  |  | COc1cc2sc(C(=O)C[C@H](C)C(=O)O)cc2c(F)c1CCCOc1c(OC)cc2sc(C(=O)C[C@H](C)C(=O)O)cc2c1F [Example 164, (S)-4-(5-(3-((2-((S)-3-carboxybutanoyl)-4-fluoro-6-methoxybenzo[b]thiophen-5-yl)oxy)propyl)-4-fluoro-6-methoxybenzo[b]thiophen-2-yl)-2-methyl-4-oxobutanoic acid] |  | 131
3 | 2 |  |  | COc1cc2sc(C(=O)CC(C)(C)C(=O)O)cc2c(F)c1OCCCOc1c(OC)cc2sc(C(=O)CC(C)(C)C(=O)O)cc2c1F [Example 165, 4,4′-((propane-1,3-diylbis(oxy))bis(4-fluoro-6-methoxybenzo[b]thiophene-5,2-diyl))bis(2,2-dimethyl-4-oxobutanoic acid)] |  | 21
117 | 8 |  |  | COc1cc2sc(C(=O)C[C@H](C)C(=O)O)cc2cc1OCCCOc1cc2sc(C(=O)C[C@H](C)C(=O)O)cc2nc1OC [Example 166, (S)-4-(5-(3-((2-((S)-3-carboxybutanoyl)-5-methoxythieno[3,2-b]pyridin-6-yl)oxy)propoxy)-6-methoxybenzo[b]thiophen-2-yl)-2-methyl-4-oxobutanoic acid] |  | 34
